The test system of one data set is LPS-challenged mice. In words: LPS-induced neutrophilia and cytokine production assay. It is filed as in vivo, mouse. To be noted: intratracheal administration; FIG. 11B.
A further data set deals with T1, ROCK1 (Homo sapiens, UniProt Q13464).
T1 construct: purchased Upstate/Chemicon 14-601
In words: Rho kinase inhibition assay (IMAP fluorescence polarization), ROCK1.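 Note: kinase reaction run 60 min at room temperature, then phosphorylated substrate captured on IMAP beads for 30 min, with fluorescence polarization read in mP.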 It is filed as biochemical.

Another data set deals with T2, ROCK2 (Homo sapiens, UniProt O75116).
T2 construct: purchased Upstate/Chemicon 14-451
In words: Rho kinase inhibition assay (IMAP fluorescence polarization), ROCK2.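 Note: kinase reaction started with 10 µM ATP and run 60 min at room temperature, then phosphorylated substrate captured on IMAP beads for 30 min and fluorescence polarization read in mP.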 It is filed as biochemical. In general terms: In fluorescence polarisation assays a small probe gives low polarisation when free and higher when bound to something large.

In another data set the target is T3, ERK1 (Homo sapiens, UniProt P27361).
T3 construct: purchased Upstate, Millipore Bioscience Division (KinaseProfiler service)
In words: Kinase panel screen (KinaseProfiler), ERK1. It is filed as biochemical. As for the experimental part:
(§1) Compounds of Formulae I and II were examined for activity against a selected panel of kinases using the KinaseProfiler™ enzyme profiling services (Upstate, Millipore Bioscience Division). Percent kinase activity at 10 μM and 1 μM test compound and 10 μM ATP was determined against 40 wild-type recombinant human kinases according to Upstate's standard protocol: ASK1, BTK, CSK, c-RAF, GCK, GSK3β, IKKα, IKKβ, IRAK1, IRAK4, JNK1α1, JNK2α2, JNK3, ERK1, ERK2, MAPKAP-K2, MAPKAP-K3, MEK1, MKK4, MKK6, MKK7β, Mnk2, MSK1, PAK3, PDK1, PRAK, ROCK1, Rsk2, SAPK2a, SAPK2b, SAPK3, SAPK4, SRPK1, SRPK2, Syk, TAK1, TBK1, PI3-Kβ, PI3-Kγ, PI3-Kδ.

Another data set concerns the target T4, p70S6K human enzyme (Homo sapiens, UniProt P23443, T412E).
T4 construct: purchased Upstate Chemicon 14-486
In words: p70S6K inhibition assay (IMAP FP).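 Note: kinase reaction run at room temperature, phosphorylated substrate captured on IMAP beads and read as fluorescence polarization in mP, IC50 then converted to Ki.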 The format is biochemical.

A short description of data set [1]: Compound plasma concentrations in unsensitized mice at 15 min post administration. As to conditions: mouse, 15 μmol/kg; mean compound plasma concentration in mice at 15 minutes post oral administration; read-out: Mouse Oral PK. The format is in vivo.
Data set [2] concerns A-10 rat thoracic aorta cells. In words: PDGF-stimulated smooth muscle cell proliferation assay (BrdU incorporation).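 Note: cells kept in serum-free medium, BrdU allowed to incorporate for 24 h, then incorporated label detected fluorometrically with an anti-BrdU antibody.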 The format is cell-based. As to conditions: A-10 cells, 10 ng/mL PDGF, BrdU incorporation, percent of total challenge-stimulated proliferation. For orientation: Incorporation of labelled thymidine or its analogues reports DNA synthesis.
Another data set concerns the target T5, Akt3 human enzyme (Homo sapiens, UniProt Q9Y243).
T5 construct: purchased Upstate Chemicon 14-502
In words: Akt3 inhibition assay (IMAP FP).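 Note: kinase reaction run 60 min at room temperature after 30 µM ATP start, phosphorylated substrate captured on IMAP beads and read as fluorescence polarization (mP).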 It is filed as biochemical.

The next data set deals with T6, IRAK4 (Homo sapiens, UniProt Q9NWZ3).
T6 construct: purchased Upstate, Millipore Bioscience Division (KinaseProfiler service)
T6 sequence (Q9NWZ3 1-460): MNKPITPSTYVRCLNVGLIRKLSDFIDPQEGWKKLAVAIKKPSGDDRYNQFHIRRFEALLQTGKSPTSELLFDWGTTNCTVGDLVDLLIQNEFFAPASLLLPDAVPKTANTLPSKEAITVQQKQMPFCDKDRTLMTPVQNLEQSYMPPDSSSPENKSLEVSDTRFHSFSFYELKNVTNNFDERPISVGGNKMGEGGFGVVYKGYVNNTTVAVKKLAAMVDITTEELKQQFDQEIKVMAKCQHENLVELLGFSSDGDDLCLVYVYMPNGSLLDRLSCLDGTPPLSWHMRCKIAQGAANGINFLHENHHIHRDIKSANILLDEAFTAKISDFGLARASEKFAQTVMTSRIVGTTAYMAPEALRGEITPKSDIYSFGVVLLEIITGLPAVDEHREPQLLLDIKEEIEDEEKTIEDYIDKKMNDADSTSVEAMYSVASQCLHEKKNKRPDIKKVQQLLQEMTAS
In words: Kinase panel screen (KinaseProfiler), IRAK4. As to conditions: 10 μM ATP. It is filed as biochemical. As for the experimental part:
as §1

A further data set concerns the target T7, GCK (Homo sapiens, UniProt Q12851).
T7 construct: purchased Upstate, Millipore Bioscience Division (KinaseProfiler service)
T7 sequence (Q12851 1-820): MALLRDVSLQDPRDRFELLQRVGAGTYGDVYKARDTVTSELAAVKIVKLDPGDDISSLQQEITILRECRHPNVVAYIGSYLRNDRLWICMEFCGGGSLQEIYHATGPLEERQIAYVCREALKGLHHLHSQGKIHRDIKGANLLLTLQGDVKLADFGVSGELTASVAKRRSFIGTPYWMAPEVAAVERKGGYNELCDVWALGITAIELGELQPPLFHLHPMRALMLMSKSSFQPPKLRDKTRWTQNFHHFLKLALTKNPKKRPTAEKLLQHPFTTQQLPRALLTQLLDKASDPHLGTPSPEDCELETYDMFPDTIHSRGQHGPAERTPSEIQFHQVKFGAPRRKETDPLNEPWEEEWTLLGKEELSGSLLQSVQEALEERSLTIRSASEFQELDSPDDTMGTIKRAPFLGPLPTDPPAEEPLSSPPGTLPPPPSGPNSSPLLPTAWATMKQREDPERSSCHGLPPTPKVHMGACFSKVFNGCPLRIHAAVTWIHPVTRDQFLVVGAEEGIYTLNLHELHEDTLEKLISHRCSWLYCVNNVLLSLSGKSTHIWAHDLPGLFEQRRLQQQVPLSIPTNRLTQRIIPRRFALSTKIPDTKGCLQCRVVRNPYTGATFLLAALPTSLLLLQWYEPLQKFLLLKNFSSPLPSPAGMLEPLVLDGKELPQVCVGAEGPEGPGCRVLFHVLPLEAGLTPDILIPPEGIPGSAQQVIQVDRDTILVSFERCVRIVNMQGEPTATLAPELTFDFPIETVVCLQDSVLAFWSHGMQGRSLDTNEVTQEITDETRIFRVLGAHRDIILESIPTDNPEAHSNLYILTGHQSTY
In words: Kinase panel screen (KinaseProfiler), GCK. The format is biochemical. As for the experimental part: as §1

A further data set deals with T8, Mnk2 (Homo sapiens, UniProt Q9HBH9).
T8 construct: purchased Upstate, Millipore Bioscience Division (KinaseProfiler service)
In words: Kinase panel screen (KinaseProfiler), Mnk2. As to conditions: 10 μM ATP. The format is biochemical. As for the experimental part:
as §1

Where two headings read alike, the source gives them in different places.

T3 sequence (P27361 whole entry): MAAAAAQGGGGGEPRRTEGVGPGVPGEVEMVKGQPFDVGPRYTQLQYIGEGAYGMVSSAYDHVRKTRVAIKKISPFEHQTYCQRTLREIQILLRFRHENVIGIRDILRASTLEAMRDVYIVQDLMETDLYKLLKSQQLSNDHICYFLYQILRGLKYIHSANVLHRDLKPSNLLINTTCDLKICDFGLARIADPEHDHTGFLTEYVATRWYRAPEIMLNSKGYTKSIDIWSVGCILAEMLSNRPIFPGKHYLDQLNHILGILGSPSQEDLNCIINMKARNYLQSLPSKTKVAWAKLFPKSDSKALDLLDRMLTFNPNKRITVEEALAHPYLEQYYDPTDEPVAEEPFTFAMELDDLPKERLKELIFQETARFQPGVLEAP
T8 sequence (Q9HBH9 whole entry): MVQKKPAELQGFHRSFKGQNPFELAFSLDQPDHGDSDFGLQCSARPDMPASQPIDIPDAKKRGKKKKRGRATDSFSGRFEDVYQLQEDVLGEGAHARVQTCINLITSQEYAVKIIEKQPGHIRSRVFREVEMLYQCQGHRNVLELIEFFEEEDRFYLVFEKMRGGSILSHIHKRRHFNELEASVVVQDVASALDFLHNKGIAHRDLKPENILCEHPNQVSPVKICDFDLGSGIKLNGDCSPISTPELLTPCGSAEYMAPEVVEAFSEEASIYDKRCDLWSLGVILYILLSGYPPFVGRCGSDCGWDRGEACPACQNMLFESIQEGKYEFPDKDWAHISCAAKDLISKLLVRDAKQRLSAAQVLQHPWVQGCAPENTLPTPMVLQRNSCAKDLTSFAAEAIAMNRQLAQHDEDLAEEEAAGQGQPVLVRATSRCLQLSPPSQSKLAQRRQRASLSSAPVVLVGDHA
T4 sequence (P23443 1-421 T412E limits assumed): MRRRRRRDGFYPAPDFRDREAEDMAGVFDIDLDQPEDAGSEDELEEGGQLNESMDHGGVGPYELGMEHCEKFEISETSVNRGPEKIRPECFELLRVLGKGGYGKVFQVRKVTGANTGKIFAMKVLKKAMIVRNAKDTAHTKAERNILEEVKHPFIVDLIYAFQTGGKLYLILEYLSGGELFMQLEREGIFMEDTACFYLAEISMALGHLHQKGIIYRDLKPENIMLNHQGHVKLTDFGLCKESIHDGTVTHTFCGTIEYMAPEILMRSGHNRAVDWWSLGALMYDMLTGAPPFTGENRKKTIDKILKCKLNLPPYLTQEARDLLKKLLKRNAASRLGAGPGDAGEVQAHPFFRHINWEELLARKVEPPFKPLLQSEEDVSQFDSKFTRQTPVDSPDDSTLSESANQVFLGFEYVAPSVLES
T2 sequence (O75116 11-552 limits assumed): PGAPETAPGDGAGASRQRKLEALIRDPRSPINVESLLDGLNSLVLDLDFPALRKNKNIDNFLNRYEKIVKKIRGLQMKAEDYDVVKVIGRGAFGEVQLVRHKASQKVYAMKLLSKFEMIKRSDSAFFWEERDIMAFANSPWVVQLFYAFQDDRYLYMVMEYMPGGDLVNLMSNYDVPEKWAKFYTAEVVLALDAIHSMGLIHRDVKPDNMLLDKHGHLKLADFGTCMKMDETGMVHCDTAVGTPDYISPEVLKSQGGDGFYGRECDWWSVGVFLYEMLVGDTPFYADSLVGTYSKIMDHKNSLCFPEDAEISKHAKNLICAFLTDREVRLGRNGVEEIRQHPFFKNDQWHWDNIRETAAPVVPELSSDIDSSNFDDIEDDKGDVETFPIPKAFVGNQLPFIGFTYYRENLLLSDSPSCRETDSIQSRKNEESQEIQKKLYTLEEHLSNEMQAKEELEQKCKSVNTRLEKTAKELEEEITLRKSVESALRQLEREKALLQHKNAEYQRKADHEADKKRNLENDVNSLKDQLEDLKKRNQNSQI
T1 sequence (Q13464 17-535 limits assumed): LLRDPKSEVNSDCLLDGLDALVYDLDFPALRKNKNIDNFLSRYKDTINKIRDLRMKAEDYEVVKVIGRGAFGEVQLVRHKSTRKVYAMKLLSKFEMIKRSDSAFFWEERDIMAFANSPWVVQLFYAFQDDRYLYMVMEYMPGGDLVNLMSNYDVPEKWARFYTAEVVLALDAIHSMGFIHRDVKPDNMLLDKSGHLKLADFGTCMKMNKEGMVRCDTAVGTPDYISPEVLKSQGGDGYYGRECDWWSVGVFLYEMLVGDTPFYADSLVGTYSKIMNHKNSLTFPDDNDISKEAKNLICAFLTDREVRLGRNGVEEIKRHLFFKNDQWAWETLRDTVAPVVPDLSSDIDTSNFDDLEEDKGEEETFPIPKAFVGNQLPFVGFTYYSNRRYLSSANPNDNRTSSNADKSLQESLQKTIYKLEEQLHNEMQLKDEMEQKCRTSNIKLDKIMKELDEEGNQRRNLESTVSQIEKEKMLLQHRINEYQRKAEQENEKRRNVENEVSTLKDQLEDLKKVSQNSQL
T5 sequence (Q9Y243 whole entry): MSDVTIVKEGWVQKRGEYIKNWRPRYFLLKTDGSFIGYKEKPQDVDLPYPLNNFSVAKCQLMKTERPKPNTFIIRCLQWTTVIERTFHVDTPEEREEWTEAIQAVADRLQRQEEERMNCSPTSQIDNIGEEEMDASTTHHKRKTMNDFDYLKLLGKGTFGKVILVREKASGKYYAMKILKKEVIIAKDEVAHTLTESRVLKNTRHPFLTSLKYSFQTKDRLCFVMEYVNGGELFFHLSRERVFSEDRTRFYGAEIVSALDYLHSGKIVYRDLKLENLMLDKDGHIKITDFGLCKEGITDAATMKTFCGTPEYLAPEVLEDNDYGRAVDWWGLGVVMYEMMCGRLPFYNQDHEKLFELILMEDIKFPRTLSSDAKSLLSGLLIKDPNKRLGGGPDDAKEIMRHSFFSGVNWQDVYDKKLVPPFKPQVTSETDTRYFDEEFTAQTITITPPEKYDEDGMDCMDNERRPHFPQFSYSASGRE
Description for LPS-challenged mice: Male BALB/c mice, approximately 19 to 21 grams, were ordered from Charles River Laboratories (Raleigh, N.C.). All animals were challenged with aerosolized LPS (10 μg/ml) for 25 minutes on study day 0. LPS aerosol was generated using an Aerogen Aeroneb nebulizer and controller providing a flow of 400 μl/min and a particle size of 2-4 μm MMAD. Rolipram was administered i.p at 20 mg/kg. […] Four hours following LPS challenge, BALF was collected using a total of 3 ml of 0.9% sodium chloride containing 10% fetal calf serum. Total cell counts were determined using the Coulter Counter. For differential evaluations, BALF was centrifuged and cytospin slides prepared and stained with Hema3 stain. Manual leukocyte counts were then completed on 200 cells. The final concentration of individual leukocyte cell types per ml of BALF was determined by multiplication of the relative percentage of individual leukocytes with the total amount of cells/ml of BALF fluid. The concentration of IL-1β in the BALF samples was determined using commercially available Bio-plex kits (Bio-Rad). The analysis of cytokine levels was measured using the Bio-Plex 200 (Bio-Rad) system according to the manufacturer's instructions.
Description for ROCK1: (§2) Following the pre-incubation, 10 μM ATP was added to initiate the reaction. After 60 minutes at room temperature, Molecular Devices IMAP™ binding solution was added to bind phosphorylated substrate. After 30 minutes of incubation in the presence of the IMAP™ beads, the fluorescence polarization was read and the ratio was reported as mP. IC50 values for compounds and EC50 values for ATP were calculated using the Prism software from Graphpad.
Description for ROCK2: as §2

Broadly, the Ki is the equilibrium dissociation constant of an inhibitor or competing ligand from its target. Turning to `NC(=O)Cn1ccc2cc(CN3CC[C@@H](Nc4cccc5cnccc45)C3)ccc21` [Compound 2.059, (R)-2-(5-((3-(isoquinolin-5-ylamino)pyrrolidin-1-yl)methyl)-1H-indol-1-yl)acetamide], in the data set with LPS-challenged mice, the “IL-1β levels in BALF from LPS-challenged mice” value is recorded as “reduction”. Moreover, the inhibition constant (Ki) on ROCK1 (Avg, 10 μM ATP) stood at 3.9 nM; at ROCK1 (average Ki), 3.9 nM; at ROCK2 (10 μM ATP, read-out: ROCK2 Ki, Avg), 2.7 nM; at ROCK2 (average Ki, read-out: ROCK2 Ki), 2.7 nM; on p70S6K human enzyme (30 μM ATP, Ki=IC50/(1+([ATP Challenge]/EC50 ATP)), read-out: p70S6K Ki, Avg), 208 nM; on p70S6K human enzyme (average Ki, read-out: p70S6K Ki), 208 nM. The Ki was 120 nM at Akt3 human enzyme (30 μM ATP, Ki=IC50/(1+([ATP Challenge]/EC50 ATP)), read-out: Akt3 Ki, Avg) and 120 nM on Akt3 human enzyme (average Ki, read-out: Akt3 Ki). Moreover, the activity at 1 µM was 37% on ERK1 (1 μM test compound, 10 μM ATP, read-out: ERK1 Percent inhibition, 1 μM); 63% at IRAK4 (1 μM test compound, read-out: IRAK4 Percent inhibition, 1 μM); 49% at Mnk2 (1 μM test compound, read-out: Mnk2 Percent inhibition, 1 μM). Moreover, at ERK1 (1 μM, read-out: ERK1 inhibited), the inhibition at 1 µM is approximately 50%. Also, the activity at 10 µM amounted to 4% on ERK1 (10 μM test compound, 10 μM ATP, read-out: ERK1 Percent inhibition, 10 μM); 22% at IRAK4 (10 μM test compound, read-out: IRAK4 Percent inhibition, 10 μM); 34% on GCK (10 μM test compound, 10 μM ATP, read-out: GCK Percent inhibition, 10 μM); 12% on Mnk2 (10 μM test compound, read-out: Mnk2 Percent inhibition, 10 μM). For the same molecule, the concentration at 15 min in data set [1] came out at 90 nM. Moreover, the “Percent of PDGF Induced Proliferation at 1 μM Avg” value in data set [2] (1 μM test compound) amounted to 75.0%. Besides, in data set [2] (10 μM test compound), the “Percent of PDGF Induced Proliferation at 10 μM Avg” value turned out to be 25.5%. Also, the “GCK Percent inhibition, 1 μM” value on GCK is given as 75%.

For the origin of these results see patent US20090325959A1 (priority 2008, published 2009).
